How the values were obtained:
[1] = system: NCI-H526 (Small Cell Lung Carcinoma); assay: Bliss excess, mean over the matrix (fraction); higher = more synergy
Outline: (§1)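 Cell lines in DMEM/F12 or RPMI with 10% FBS were plated in 1536-well plates, held 24 hours at 37°C, 5% CO2, then given two-drug dose matrices for 72 hours (DMSO typically 0.2%). Viability was read by CellTiter-Glo 2.0 luminescence and scaled as inhibition from 0 (vehicle wells) to 1 (blank wells). Combination Emax is the second-highest inhibition in the matrix; Bliss excess is observed combination effect minus expected EA + EB − EA·EB, EA and EB being single-agent effects.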

[2] = system: SUP-B15 (B-Lymphoblastic Leukemia); assay: as above
Outline: as §1

[3] = system: SU-DHL-5 (B-Cell Non-Hodgkin's Lymphoma); assay: as above
Outline: as §1

[4] = system: PC-3 (Prostate Carcinoma); assay: as above
Outline: as §1

NCI-H2731 (Mesothelioma) = assay: as above
Outline: as §1

[5] = system: HCC1187 (Breast Carcinoma); assay: as above
Outline: as §1

[6] = system: ESO51 (Esophageal Adenocarcinoma); assay: as above
Outline: as §1

[7] = system: NCI-H3122 (Lung Adenocarcinoma); assay: as above
Outline: as §1

[8] = system: JHH-4 (Hepatocellular Carcinoma); assay: as above
Outline: as §1

[9] = system: KP-3 (Pancreatic Carcinoma); assay: as above
Outline: as §1

[10] = system: NCCIT (Other Solid Carcinomas); assay: as above
Outline: as §1

[11] = system: H9 (T-Cell Non-Hodgkin's Lymphoma); assay: as above
Outline: as §1

[12] = system: IM-95 (Gastric Carcinoma); assay: as above
Outline: as §1

[13] = system: KY821 (Acute Myeloid Leukemia); assay: as above
Outline: as §1

[14] = system: T-T (Esophageal Squamous Cell Carcinoma); assay: as above
Outline: as §1

[15] = system: MOLM-13 (Acute Myeloid Leukemia); assay: as above
Outline: as §1

G-361 (Melanoma) = assay: as above
Outline: as §1

[16] = system: CHSA8926 (Chondrosarcoma); assay: as above
Outline: as §1

[17] = system: MN-60 (B-Lymphoblastic Leukemia); assay: as above
Outline: as §1

[18] = system: 8505C (Thyroid Gland Carcinoma); assay: combination Emax (second highest fraction inhibited in the dose matrix, 72 h); higher = more inhibition; extreme values may be limits of the assay
Outline: as §1
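Throughout, for Bliss excess, mean over the matrix: after 72 h of two-drug dosing.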

| Compound | Bliss excess [1] | Bliss excess [2] | Bliss excess [3] | Bliss excess [4] | Bliss excess (NCI-H2731 (Mesothelioma)) | Bliss excess [5] | Bliss excess [6] | Bliss excess [7] | Bliss excess [8] | Bliss excess [9] | Bliss excess [10] | Bliss excess [11] | Bliss excess [12] | Bliss excess [13] | Bliss excess [14] | Bliss excess [15] | Bliss excess (G-361 (Melanoma)) | Bliss excess [16] | Bliss excess [17] | combination Emax [18] |
| --- | --- | --- | --- | --- | --- | --- | --- | --- | --- | --- | --- | --- | --- | --- | --- | --- | --- | --- | --- | --- |
| Cn1cnc2c(F)c(Nc3ccc(Br)cc3Cl)c(C(=O)NOCCO)cc21 [Selumetinib] + CCN(CCO)CCCOc1ccc2c(Nc3cc(CC(=O)Nc4cccc(F)c4)[nH]n3)ncnc2c1 [AZD2811] (first compound max 10 µM, 7x7, partner max 1 µM) | -0.017 | 0.0553 | 0.0214 | -0.057 | -0.0293 | -0.0374 | 0.0567 | 0.0093 | -0.0412 | -0.0293 | -0.0657 | -0.0129 | 0.0874 | 0.05 | -0.0072 | 0.0359 | 0.0005 | -0.0593 | -0.0202 | 0.388 |
| Cn1cnc2c(F)c(Nc3ccc(Br)cc3Cl)c(C(=O)NOCCO)cc21 [Selumetinib] + C[C@@H]1COCCN1C2=NC(=NC(=C2)C3(CC3)[S@](=N)(=O)C)C4=C5C=CNC5=NC=C4 [AZD6738] (first compound max 10 µM, 7x7, partner max 10 µM) | -0.0544 | 0.142 | 0.074 | -0.036 | -0.0187 | -0.0539 | 0.0119 | -0.0471 | -0.0395 | -0.0459 | -0.0802 | -0.03 | 0.0554 | -0.0519 | -0.041 | 0.0491 | -0.0081 | -0.031 | -0.0319 | 0.515 |
| CC1(C)CCC(CN2CCN(c3ccc(C(=O)NS(=O)(=O)c4ccc(NCC5CCOCC5)c([N+](=O)[O-])c4)c(Oc4cnc5[nH]ccc5c4)c3)CC2)=C(c2ccc(Cl)cc2)C1 [Venetoclax] + C1CN(CCC1(C(=O)N[C@@H](CCO)C2=CC=C(C=C2)Cl)N)C3=NC=NC4=C3C=CN4 [Capivasertib] (first compound max 1 µM, 7x7, partner max 3 µM) | -0.0095 | 0.0077 | -0.0236 | -0.046 | -0.066 | -0.0227 | -0.0379 | -0.0592 | -0.054 | -0.0257 | -0.0285 | -0.02 | -0.0067 | 0.0303 | 0.0155 | 0.0074 | -0.0618 | -0.0364 | -0.0485 | 0.139 |
| CC1(C)CCC(CN2CCN(c3ccc(C(=O)NS(=O)(=O)c4ccc(NCC5CCOCC5)c([N+](=O)[O-])c4)c(Oc4cnc5[nH]ccc5c4)c3)CC2)=C(c2ccc(Cl)cc2)C1 [Venetoclax] + C=CCn1c(=O)c2cnc(Nc3ccc(N4CCN(C)CC4)cc3)nc2n1-c1cccc(C(C)(C)O)n1 [AZD1775] (first compound max 1 µM, partner max 1 µM) | -0.0183 | 0.0509 | -0.0814 | 0.0286 | -0.0295 | -0.0522 | -0.0404 | -0.0505 | -0.0538 | -0.0085 | 0.0522 | -0.0295 | 0.0197 | -0.0104 | 0.0832 | 0.0122 | -0.0214 | -0.0333 | -0.0285 | 0.244 |
| CC1(C)CCC(CN2CCN(c3ccc(C(=O)NS(=O)(=O)c4ccc(NCC5CCOCC5)c([N+](=O)[O-])c4)c(Oc4cnc5[nH]ccc5c4)c3)CC2)=C(c2ccc(Cl)cc2)C1 [Venetoclax] + CCN(CCO)CCCOc1ccc2c(Nc3cc(CC(=O)Nc4cccc(F)c4)[nH]n3)ncnc2c1 [AZD2811] (first compound max 1 µM, 7x7, partner max 1 µM) | 0.138 | 0.0132 | -0.125 | -0.0668 | -0.021 | -0.0165 | -0.0104 | -0.0229 | -0.0152 | -0.0316 | 0.0139 | -0.0616 | 0.104 | 0.002 | 0.0158 | 0.0626 | -0.0163 | 0.0042 | -0.0927 | 0.211 |

Source: the supplement of paper PMC11061612
